Laboratory results: paper PMC6895912 (Cancers, 2019)
“Also recorded” adds a separate entry of the source. Read-outs that look alike come from different tables or passages of the source.

Legend:
[1] = tested on: CWR-R1, CWR-R1 (10E), CWR-R1-MTX20nM cells; experiment: Colony formation (clonogenicity) assay; assay type: cell-based, human; conditions: parental CWR-R1 and drug-resistant counterparts, 14 days
Text: (A) Comparative GI50 values of Gal, NGGAs, and enzalutamide (ENZ) in drug-naïve-/-resistant prostate cancer cells. (B) Gal and NGGAs induce G1 cell cycle arrest in LNCaP cells. (C) VNPP414 and VNPP433-3β deplete the cell cycle regulator, cyclin D1, and upregulate p21; “+” indicates specific treatments. (D) Gal cause dose-dependent depletion of cyclin D1. (E) Unlike ENZ, Gal and VNPP433-3β inhibit colony formation of drug-naïve/-resistant cells in vitro. 1000 cells/well (CWR-R1, CWR-R1 (10E), CWR-R1-MTX20nM), seeded in 6-well plates were treated with indicated concentrations of compounds for a period of 14 days. Media containing compounds were replaced every 3 days. Colonies were stained with 0.05% crystal violet. (F) Quantification of colony formation units (CFU) in drug-naive/resistant cells. Colony assays were repeated three times and colonies counted in four quadrants of the wells. Results are represented as averages with S.E.M. (* p < 0.05, ** p < 0.001). Note: the numbers in parentheses in Figure 2B,C,E are concentrations of the agents in µM.
0.1 × 10^3 cells per well were seeded in 6-well plates and allowed to attach overnight (16 h), cells were treated with compounds in regular media (RPMI with 10% FBS) at the indicated concentrations and replaced every 3rd day for 14 days or until visible colonies could be counted. Colonies were washed and stained with 0.05% crystal violet for 30 min. Colonies were scanned and quantified (colonies counted in four quadrants of each well) with ImageJ colony counter. Results are represented as the mean of triplicates.

PC-3 cells = experiment: Wound-healing cell migration assay; assay type: cell-based, human; conditions: PC-3, wound healing, 12 h
LNCaP cells = experiment: Cell cycle analysis (G1 arrest); assay type: cell-based, human; conditions: 2.5 µM as effective as Gal at 20 µM
Text: The new NGGAs (VNPP414 and VNPP433-3β) were identified from in vitro anti-proliferative activities of our in-house compounds assessed in several PC cell lines, including LNCaP, C4-2B, and CWR22Rv1 (22Rv1). […] It was recently reported that treatment of AR-expressing bladder cancer cell lines with enzalutamide induced up-regulation of tumor suppressor, p53, p21 and PTEN, and down-regulation of several oncogenic genes, such as c-myc, cyclin D1, and cyclin E [38]. […] We note that these cell-cycle studies were conducted in LNCaP cells. Inhibition of colony formations (clonogenicity assays) was also assessed by treating the parental CWR-R1 cells and two drug-resistant counterparts with Gal, VNPP433-3β, or ENZ.
(A) Comparative GI50 values of Gal, NGGAs, and enzalutamide (ENZ) in drug-naïve-/-resistant prostate cancer cells. (B) Gal and NGGAs induce G1 cell cycle arrest in LNCaP cells. (C) VNPP414 and VNPP433-3β deplete the cell cycle regulator, cyclin D1, and upregulate p21; “+” indicates specific treatments. (D) Gal cause dose-dependent depletion of cyclin D1. (E) Unlike ENZ, Gal and VNPP433-3β inhibit colony formation of drug-naïve/-resistant cells in vitro. […] (F) Quantification of colony formation units (CFU) in drug-naive/resistant cells. Colony assays were repeated three times and colonies counted in four quadrants of the wells. […]

AR-V7 = target: T1, AR-V7 (Homo sapiens, UniProt P10275); experiment: Protein level decrease by western blot, dose-response in CWR22Rv1 cells; assay type: cell-based; conditions: for times more effective (than Gal) in degrading AR-V7: from EC50 values
T1 construct: compound treatments (0–7.5 µM) of CWR22Rv1 cells for 72 h followed by western blot analysis of cells lysates; endogenous in cells; host or cells: CWR22Rv1
T1 sequence (P10275 1-644 isoform P10275-3): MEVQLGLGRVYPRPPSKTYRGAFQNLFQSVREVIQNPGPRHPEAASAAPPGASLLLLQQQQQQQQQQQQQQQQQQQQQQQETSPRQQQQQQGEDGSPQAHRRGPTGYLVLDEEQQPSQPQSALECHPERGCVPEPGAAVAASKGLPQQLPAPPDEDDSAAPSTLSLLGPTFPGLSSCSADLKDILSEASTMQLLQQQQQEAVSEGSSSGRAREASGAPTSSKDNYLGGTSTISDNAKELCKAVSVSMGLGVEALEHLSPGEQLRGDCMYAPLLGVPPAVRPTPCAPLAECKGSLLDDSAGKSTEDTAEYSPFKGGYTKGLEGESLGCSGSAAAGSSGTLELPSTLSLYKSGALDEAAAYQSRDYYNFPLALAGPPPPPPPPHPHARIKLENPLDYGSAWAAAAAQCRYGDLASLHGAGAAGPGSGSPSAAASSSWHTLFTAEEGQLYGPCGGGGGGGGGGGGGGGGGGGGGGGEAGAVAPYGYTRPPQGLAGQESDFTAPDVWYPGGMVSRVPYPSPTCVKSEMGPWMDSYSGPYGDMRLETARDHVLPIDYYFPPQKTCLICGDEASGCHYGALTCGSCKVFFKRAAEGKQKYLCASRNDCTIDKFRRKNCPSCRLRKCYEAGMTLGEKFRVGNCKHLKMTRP
Text: (§1) Figure 4 Impact of Gal and NGGAs on AR/AR-V7 and Mnk1/2-eIF4E signaling pathways. (A) Western blot showing the effects of Gal and VNPT55 (55) on Mnk1, Mnk2, and peIF4E. […] (D) Western blot showing dose-dependent effect of Gal on Mnk1, Mnk2, BMI-1, and Snail1 in drug-resistant CWR-R1(10E) cells. […] Note: the numbers in parentheses in Figure 4B are concentrations of the agents in µM.
(§2) We further determined the effects of lead NGGAs on f-AR, AR-V7 and Mnk1 protein levels in CWR22Rv1 cells.
(§3) Cells were lysed with radioimmunoprecipitation assay (RIPA) buffer (Sigma, St. Louis, MO, USA), supplemented with 1X protease inhibitors (Roche, Indianapolis, IN, USA), phosphatase inhibitors (Thermo Scientific, Waltham, MA, USA), 1 mmol/L EDTA and 1 mmol/L PMSF (Sigma).

fAR = fAR (Homo sapiens, UniProt P10275); experiment: as above; assay type: cell-based
Text: as §1, §2, §3

fAR, sequence (P10275 whole entry): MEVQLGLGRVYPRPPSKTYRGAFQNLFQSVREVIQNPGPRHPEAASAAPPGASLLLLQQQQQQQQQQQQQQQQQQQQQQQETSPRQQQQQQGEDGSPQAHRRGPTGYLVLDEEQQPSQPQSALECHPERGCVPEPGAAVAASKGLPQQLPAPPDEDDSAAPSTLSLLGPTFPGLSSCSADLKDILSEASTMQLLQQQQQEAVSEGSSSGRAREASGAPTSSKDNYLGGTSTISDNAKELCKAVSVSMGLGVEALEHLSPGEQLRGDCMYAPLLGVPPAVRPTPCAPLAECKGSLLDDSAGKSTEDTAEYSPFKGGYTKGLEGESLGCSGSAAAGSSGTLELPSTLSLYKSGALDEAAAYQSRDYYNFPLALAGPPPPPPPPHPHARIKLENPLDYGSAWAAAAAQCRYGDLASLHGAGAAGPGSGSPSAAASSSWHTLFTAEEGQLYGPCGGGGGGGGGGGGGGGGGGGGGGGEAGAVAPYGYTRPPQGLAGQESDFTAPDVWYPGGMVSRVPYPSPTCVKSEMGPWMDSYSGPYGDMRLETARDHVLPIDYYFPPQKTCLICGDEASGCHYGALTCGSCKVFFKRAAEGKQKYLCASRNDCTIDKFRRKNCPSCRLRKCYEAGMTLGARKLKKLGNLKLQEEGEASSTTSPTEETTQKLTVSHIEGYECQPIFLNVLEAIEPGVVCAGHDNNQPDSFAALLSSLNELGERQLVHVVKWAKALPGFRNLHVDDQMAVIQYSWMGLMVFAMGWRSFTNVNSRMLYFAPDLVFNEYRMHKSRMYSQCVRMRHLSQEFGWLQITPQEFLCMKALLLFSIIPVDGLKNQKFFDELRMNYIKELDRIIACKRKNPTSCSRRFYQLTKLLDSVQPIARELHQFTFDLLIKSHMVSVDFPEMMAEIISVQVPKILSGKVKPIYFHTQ

SMILES | inhibition of colony formation [1] | inhibition of cell migration (PC-3 cells) | improved potency over Gal in G1 cell cycle arrest (LNCaP cells) [fold] | DC50 (AR-V7; 0–7.5 µM, 72 h, western blot, read-out: AR-V7 EC50) [µM] | times more effective (than Gal) in degrading AR-V7 (AR-V7) [times] | EC50 (fAR; read-out: fAR EC50, 0–7.5 µM, 72 h) [µM] | DC50 (AR-V7; read-out: AR-V7 EC50, 0–7.5 µM, 72 h, western blot) [µM] | EC50 (fAR; 0–7.5 µM, 72 h, read-out: fAR EC50) [µM]
C[C@]12CC[C@H](O)CC1=CC[C@@H]1[C@@H]2CC[C@]2(C)C(n3cnc4ccccc43)=CC[C@@H]12 [Galeterone] | markedly inhibited clonogenic ability | – | – | – | – | – | – | –
C[C@]12CC[C@H](OCc3ccncc3)CC1=CCC1C2CC[C@]2(C)C(n3cnc4ccccc43)=CCC12 (stereo partly drawn) [VNPP414] | – | significant inhibition of PC-3 cells migration | ≥ 8 | 1.26 ± 0.05 | 3.9 | 0.84 ± 0.002 | – | –
C[C@]12CC[C@H](n3ccnc3)CC1=CCC1C2CC[C@]2(C)C(n3cnc4ccccc43)=CCC12 (stereo partly drawn) [VNPP433-3β] | significantly more potent than Gal; also recorded: markedly inhibited clonogenic ability | significant inhibition of PC-3 cells migration | ≥ 8 | – | 3.7 | – | 1.34 ± 0.33 | 0.58 ± 0.002
